Laboratory results published in PubChem BioAssay (NCI).
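All cell lines were grown in 96-well plates and treated with compound for 48 hours. TGI denotes the concentration required for complete inhibition of growth.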

Columns and labels:
Assay in all cases: NCI-60 cell line screen, 48 h
COLO 205 colon = system: COLO 205 colon
K-562 leukemia = system: K-562 leukemia
SW-620 colon = system: SW-620 colon
UO-31 renal = system: UO-31 renal
HOP-92 NSCLC = system: HOP-92 NSCLC
CCRF-CEM leukemia = system: CCRF-CEM leukemia
U251 CNS = system: U251 CNS
TK-10 renal = system: TK-10 renal
ACHN renal = system: ACHN renal
NCI-H460 lung = system: NCI-H460 lung
HCT-15 colon = system: HCT-15 colon
LXFL 529 NSCLC = system: LXFL 529 NSCLC
UACC-257 melanoma = system: UACC-257 melanoma
DMS 273 small cell lung = system: DMS 273 small cell lung
UACC-62 melanoma = system: UACC-62 melanoma
LOX IMVI melanoma = system: LOX IMVI melanoma
SK-MEL-28 melanoma = system: SK-MEL-28 melanoma
OVCAR-5 ovarian = system: OVCAR-5 ovarian
786-0 renal = system: 786-0 renal
NCI-H226 lung = system: NCI-H226 lung
HT29 colon = system: HT29 colon
M19-MEL melanoma = system: M19-MEL melanoma
SF-268 CNS = system: SF-268 CNS
HL-60(TB) leukemia = system: HL-60(TB) leukemia
M14 melanoma = system: M14 melanoma
SNB-19 CNS = system: SNB-19 CNS
SK-OV-3 ovarian = system: SK-OV-3 ovarian
NCI-H23 lung = system: NCI-H23 lung
KM20L2 colon = system: KM20L2 colon
SNB-78 CNS = system: SNB-78 CNS
HCT-116 colon = system: HCT-116 colon
EKVX NSCLC = system: EKVX NSCLC
SF-295 CNS = system: SF-295 CNS
CAKI-1 renal = system: CAKI-1 renal
KM12 colon = system: KM12 colon
OVCAR-4 ovarian = system: OVCAR-4 ovarian
IGROV1 ovarian = system: IGROV1 ovarian
SK-MEL-2 melanoma = system: SK-MEL-2 melanoma
HOP-18 NSCLC = system: HOP-18 NSCLC
A549 NSCLC = system: A549 NSCLC
OVCAR-3 ovarian = system: OVCAR-3 ovarian
MOLT-4 leukemia = system: MOLT-4 leukemia
SF-539 CNS = system: SF-539 CNS
DLD-1 colon = system: DLD-1 colon
OVCAR-8 ovarian = system: OVCAR-8 ovarian
HOP-62 NSCLC = system: HOP-62 NSCLC
SR leukemia = system: SR leukemia
RXF 393 renal = system: RXF 393 renal
SNB-75 CNS = system: SNB-75 CNS
HCC-2998 colon = system: HCC-2998 colon
RPMI-8226 leukemia = system: RPMI-8226 leukemia
DMS 114 small cell lung = system: DMS 114 small cell lung
A498 renal = system: A498 renal
SN12C renal = system: SN12C renal
T-47D breast = system: T-47D breast
MALME-3M melanoma = system: MALME-3M melanoma
MDA-N = system: MDA-N
NCI-H522 lung = system: NCI-H522 lung
PC-3 prostate = system: PC-3 prostate
BT-549 breast = system: BT-549 breast
MDA-MB-231 breast = system: MDA-MB-231 breast
SK-MEL-5 melanoma = system: SK-MEL-5 melanoma
MDA-MB-435 = system: MDA-MB-435
NCI/ADR-RES ovarian = system: NCI/ADR-RES ovarian
DU-145 prostate = system: DU-145 prostate
HS 578T breast = system: HS 578T breast
MCF7 breast = system: MCF7 breast

Measured: TGI

CC(C)(C)c1cc(CCC(=O)Nc2ccc(Cl)cc2)nc(NC#N)n1
> 100 µM: COLO 205 colon | K-562 leukemia | SW-620 colon | UO-31 renal | HOP-92 NSCLC | CCRF-CEM leukemia | U251 CNS | TK-10 renal | ACHN renal | NCI-H460 lung | HCT-15 colon | LXFL 529 NSCLC | UACC-257 melanoma | DMS 273 small cell lung | UACC-62 melanoma | LOX IMVI melanoma | SK-MEL-28 melanoma | OVCAR-5 ovarian | 786-0 renal | NCI-H226 lung | HT29 colon | M19-MEL melanoma | SF-268 CNS | HL-60(TB) leukemia | M14 melanoma | SNB-19 CNS | SK-OV-3 ovarian | NCI-H23 lung | KM20L2 colon | SNB-78 CNS | HCT-116 colon | EKVX NSCLC | SF-295 CNS | CAKI-1 renal | KM12 colon | OVCAR-4 ovarian | IGROV1 ovarian | SK-MEL-2 melanoma | HOP-18 NSCLC | A549 NSCLC | OVCAR-3 ovarian | MOLT-4 leukemia | SF-539 CNS | DLD-1 colon | OVCAR-8 ovarian | HOP-62 NSCLC

O=C(O)CCSC(=O)Nc1ccc([N+](=O)[O-])cc1
> 100 µM: SR leukemia | COLO 205 colon | K-562 leukemia | SW-620 colon | RXF 393 renal | UO-31 renal | CCRF-CEM leukemia | U251 CNS | TK-10 renal | HCC-2998 colon | ACHN renal | NCI-H460 lung | HCT-15 colon | LXFL 529 NSCLC | UACC-257 melanoma | DMS 273 small cell lung | LOX IMVI melanoma | SK-MEL-28 melanoma | RPMI-8226 leukemia | 786-0 renal | HT29 colon | SF-268 CNS | HL-60(TB) leukemia | M14 melanoma | DMS 114 small cell lung | SNB-19 CNS | NCI-H23 lung | A498 renal | SN12C renal | SNB-78 CNS | HCT-116 colon | EKVX NSCLC | SF-295 CNS | CAKI-1 renal | KM12 colon | OVCAR-4 ovarian | IGROV1 ovarian | SK-MEL-2 melanoma | A549 NSCLC | OVCAR-3 ovarian | MOLT-4 leukemia | SF-539 CNS | DLD-1 colon | OVCAR-8 ovarian | HOP-62 NSCLC
64.7 µM: SNB-75 CNS

O=c1[nH]nc(-c2ccccc2)n1/N=C/c1ccc([N+](=O)[O-])cc1
> 59.3 µM: CAKI-1 renal
> 100 µM: SR leukemia | COLO 205 colon | K-562 leukemia | SW-620 colon | MALME-3M melanoma | CCRF-CEM leukemia | ACHN renal | NCI-H460 lung | HCT-15 colon | UACC-257 melanoma | UACC-62 melanoma | LOX IMVI melanoma | SK-MEL-28 melanoma | RPMI-8226 leukemia | OVCAR-5 ovarian | MDA-N | NCI-H522 lung | HT29 colon | HL-60(TB) leukemia | PC-3 prostate | M14 melanoma | BT-549 breast | SNB-19 CNS | NCI-H23 lung | SN12C renal | HCT-116 colon | EKVX NSCLC | KM12 colon | SK-MEL-5 melanoma | OVCAR-4 ovarian | MDA-MB-435 | IGROV1 ovarian | DU-145 prostate | MCF7 breast | A549 NSCLC | OVCAR-3 ovarian | MOLT-4 leukemia | SF-539 CNS
25.8 µM: HOP-62 NSCLC
> 83.5 µM: HCC-2998 colon
> 75 µM: NCI-H226 lung
67.3 µM: SK-MEL-2 melanoma
98.2 µM: HS 578T breast
> 63.8 µM: MDA-MB-231 breast
34.9 µM: SNB-75 CNS
55 µM: TK-10 renal
9.34 µM: SK-OV-3 ovarian
32 µM: HOP-92 NSCLC
> 87.2 µM: SF-268 CNS
20.8 µM: U251 CNS
> 38.1 µM: UO-31 renal
37.1 µM: OVCAR-8 ovarian
> 77.7 µM: SF-295 CNS
> 60.2 µM: T-47D breast
> 68.9 µM: NCI/ADR-RES ovarian
22.9 µM: 786-0 renal
28.1 µM: RXF 393 renal
49.7 µM: A498 renal

COc1nc(N=P(c2ccccc2)(c2ccccc2)c2ccccc2)cc(=O)[nH]1
> 100 µM: T-47D breast | SR leukemia | COLO 205 colon | K-562 leukemia | SW-620 colon | RXF 393 renal | UO-31 renal | HOP-92 NSCLC | SNB-75 CNS | MALME-3M melanoma | CCRF-CEM leukemia | U251 CNS | TK-10 renal | HCC-2998 colon | ACHN renal | NCI-H460 lung | HCT-15 colon | UACC-257 melanoma | UACC-62 melanoma | LOX IMVI melanoma | SK-MEL-28 melanoma | RPMI-8226 leukemia | OVCAR-5 ovarian | 786-0 renal | MDA-N | NCI-H226 lung | NCI-H522 lung | HT29 colon | SF-268 CNS | HL-60(TB) leukemia | PC-3 prostate | M14 melanoma | BT-549 breast | SNB-19 CNS | SK-OV-3 ovarian | NCI-H23 lung | A498 renal | SN12C renal | MDA-MB-231 breast | HCT-116 colon | EKVX NSCLC | SF-295 CNS | CAKI-1 renal | KM12 colon | SK-MEL-5 melanoma | OVCAR-4 ovarian | MDA-MB-435 | NCI/ADR-RES ovarian | IGROV1 ovarian | DU-145 prostate | HS 578T breast | MCF7 breast | SK-MEL-2 melanoma | A549 NSCLC | OVCAR-3 ovarian | MOLT-4 leukemia | SF-539 CNS | OVCAR-8 ovarian | HOP-62 NSCLC
